Source: patent EP3753563A1, “ANTI-HERPESVIRUS GUANOSINE ANALOGUE FOR THE INHIBITION OF BASAL AUTOPHAGY” (Helmholtz-Zentrum für Infektionsforschung GmbH, priority 2019, dated 2020)

Tests used:
[1] = tested on: A549 GFP-LC3B reporter cells; test: High-content GFP-LC3B puncta analysis in fed or starved A549 reporter cells; assay type: cell-based, human
Procedure: (§1) For the single reporter analyses of figure 1 A549 stably transduced with a retroviral GFP LC3 fusion vector were used, for the tandem reporter analyses of figure 2 NIH mouse fibroblasts stably transduced with a retroviral RFP-GFP-LC3B fusion construct were employed. Cells were seeded on 96-well plates at a density of 3.5 x 10^4 cells per well in 100 µL of their respective growth medium (DMEM for NIH3T3 and F-12K for A549, respectively). The plates were left at room temperature for one hour without moving them to guarantee an even distribution of the cells on the well bottom and then cultured over night at 37 °C and 5% CO2.
(§2) On the next day, compounds were added at the appropriate concentration in either 100 µL of their normal fed medium or 100 µL of Hank's balanced salt solution (HBSS) to induce starvation and then cultured at 37 °C and 5% CO2 for 3 h or 1.5 h respectively. Subsequently, cells were carefully washed once with phosphate buffered saline (PBS), fixed in 4% formaldehyde for 20 min at room temperature and washed again twice with PBS. Nuclear staining was performed using 0.05% Hoechst 33342 solution in PBS for 10 min at room temperature.
After another two times of washing in PBS, cells could be stored in PBS at 4 °C and were ready for measurement with the automatic fluorescence microscope (ImageXpress Micro XLS Widefield High-Content Imaging system). For each well, images at nine different sites were taken automatically (60x objective, magnification 600x). […]
Duplicate samples were analyzed comprising 500-1000 cells/well, which represents a coverage of at least 2%/well. Analyses were performed using the Transfluor modul of MetaXpress 6 software (Molecular Devices) with the following settings: vesicle width 0.5 µm - 5 µm and necessary intensity above local background 2000 gray levels determined from the FITC or 500 gray levels determined from the Texas Red image. Size of nuclei 5 µm - 30 µm and necessary intensity above local background 2000 gray levels determined from the DAPI image.

[2] = tested on: 3T3 fibroblasts harbor a RFP-GFP-LC3B tandem reporter construct; test: RFP-GFP-LC3B tandem reporter analysis of autophagic flux; assay type: cell-based, mouse; details: for mode of autophagy modulation: mouse 3T3 fibroblasts
Procedure: as §1, §2
After another two times of washing in PBS, cells could be stored in PBS at 4 °C and were ready for measurement with the automatic fluorescence microscope (ImageXpress Micro XLS Widefield High-Content Imaging system). For each well, images at nine different sites were taken automatically (60x objective, magnification 600x). Exposure times were 150 ms for DAPI, 1000 ms for FITC (single reporter LC3) and 150 ms for DAPI, 1000 ms for FITC, 5000 ms for Texas Red (tandem reporter analysis).
NIH/3T3 cells stably expressing RFP-GFP-LC3 were treated to induce or inhibit autophagy (for control) and with the compound in question and taken for image acquisition (described above). Between 120-160 cells were analyzed in each quantification for vesicular, red spot numbers and colocalization of punctate red/green signals using the Gen5 software package (BioTek). Average values are shown.
In this assay, red spot numbers correlate with total LC3 autophagic particles, yellow colocalization parallels the number of autophagosomes/phagophores.

[3] = tested on: wt and mutant ATG4D^G1288A Lagotto Romagnolo dog fibroblasts; test: LC3 Western blot of basal and induced autophagy in dog fibroblasts (NVSD model); assay type: cell-based
Procedure: Induction (starvation in Earle's Balanced Salt Solution (EBSS)) increases autophagy activity, as detected by formation of the marker LC3-II. Since autophagy consists of several steps and the last one is a degradation step, a block must be set in order to assess the proportion of the synthesis/maturation step more precisely. To this end, Bafilomycin A1 (BafA1) is added to the cells. BafA1 inhibits the fusion of autophagosomes to autolysosomes and then the degradation of the vesicle content. The comparison +/- Baf A1 is used to measure the autophagy flux. Since BafA1 inhibits the degradation of vesicle contents, LC3-II determination in WBs can be used to determine the rate of autophagosome production/maturation (corresponding to the early to middle part of the autophagy process) and the rate of autolysosomal degradation (late phase), i.e. the total degradation capacity.
A reference sample was loaded onto each gel to compare the results of different gels. The reference sample consists of WT cells grown in full medium conditions without any treatment. Graphs show expression levels of LC3-II normalized to the loading control (tubulin) and the reference sample and represent mean + SEM.
Fibroblasts from affected dogs and age-, breed-, and sex-matched controls were cultured in high glucose Dulbecco's Modified Eagle Medium (DMEM 41965-039 Gibco) with 10% fetal bovine serum (FBS 10500056 Gibco) and penicillin-streptomycin (PenStrep15140122 Gibco). During second or third passages, cells were seeded at equal density onto Petri dishes and additionally onto glass cover slips. […] Beta actin was used as the loading control for relative quantification of the blots (anti-beta Actin PA5-16914 Thermo Fischer Scientific). Signals were visualized by enhanced chemiluminescence and further analyzed by densitometry. […]

[4] = tested on: HSV; details: read-out: EC 50 concentration for HSV inhibition; cited from earlier work

SMILES | reduction of LC3 fluorescence compared to the control ([1]; fed A549 cells, vesicular GFP 3h after treatment) | amount of membrane-bound GFP-LC3 compared to the control ([1]; fed cells (basal autophagy), 3 h, LC3-positive vesicle area per cell) | inhibition of induced autophagy ([1]; starved cells, 1.5 h) | reduction of the number of autolysosomes ([2]; calculated by subtraction) | reduction of total autophagic particle numbers ([2]; compared to the control) | mode of autophagy modulation [2] | autophagosome/phagophores ([2]; yellow colocalization) | LC3-II levels of basal autophagy ([3]; mutant LR cells, 1 µM A2, two hours, with BafA1) | LC3 levels induced by starvation ([3]; starvation in EBSS, 1 µM A2 (lanes 4 and 8)) | LC3 I ([3]; treated mutant cells, Western blot lanes 5 DMSO and A2) | EC50 [4] | total LC3 containing autophagic particle numbers compared to the control ([2]; red spot numbers, 2 µM Chloroquine, 120-160 cells)
CC(=O)OCC(CCn1cnc2cnc(N)nc21)COC(C)=O [Famciclovir] | 2 -fold |  |  |  |  |  |  |  |  |  |  | 
Nc1nc2c(ncn2COCCO)c(=O)[nH]1 [compound A2, aciclovir] |  | 60% | does not inhibit induced autophagy | 4 fold | 40% | early inhibition of autophagy | slight increase | diminishes LC3-II levels of basal autophagy in mutant LR cells to level observed in wt cells | nearly unaltered | less LC3 I seems to be present | 1300 nM | 
CCN(CC)CCCC(C)Nc1ccnc2cc(Cl)ccc12 (stereo not shown) [Chloroquine] |  |  |  |  |  | late inhibition |  |  |  |  |  | increased
